# Assay results reported in patent publication US20240368157A1, “FORMS AND COMPOSITIONS OF A JAK2 INHIBITOR” (Ajax Therapeutics, Inc., priority 2023, published 2024).
# Assays:
# [1] = Dynamic vapor sorption (DVS); assay type: physicochemical; details: for Hysteresis: in % (unit assumed)
# Experimental: Moisture sorption/desorption data were collected on a Surface Measurement System DVS Intrinsic instrument. Samples were not dried prior to analysis. Sorption and desorption data were collected over a range from 5% to 95% RH to 5% RH at 10% RH increments under a nitrogen purge. The equilibrium criterion used for analysis was less than 0.0100% weight change in 5 minutes with a maximum equilibration time of 3 hours. Data were not corrected for the initial moisture content of the samples.
# physchem = details: water
# [2] = Slurry in water at ambient temperature (XRPD); assay type: physicochemical; details: 3 days
smiles,measurement,setting,value
CN(C)C(=O)Nc1cc(Oc2cnc3nc(Nc4cc(C(F)(F)F)cn(C)c4=O)n(C)c3c2C#N)ccn1 [Form F],Desorp Mass Change (%),"[1]; DVS cycle 1, target RH 5%",−0.2589%
same,Sorp Mass Change (%),"[1]; DVS cycle 1, target RH 5%",0.0100%
same,Desorp Mass Change (%),"[1]; DVS cycle 1, target RH 15%",−0.2193%
same,Sorp Mass Change (%),"[1]; DVS cycle 1, target RH 15%",−0.0114%
same,Hysteresis,"[1]; DVS cycle 1, target RH 15%",−0.2079
same,Desorp Mass Change (%),"[1]; DVS cycle 1, target RH 25%",−0.1841%
same,Sorp Mass Change (%),"[1]; DVS cycle 1, target RH 25%",−0.0296%
same,Hysteresis,"[1]; DVS cycle 1, target RH 25%",−0.1545
same,Desorp Mass Change (%),"[1]; DVS cycle 1, target RH 35%",−0.1477%
same,Sorp Mass Change (%),"[1]; DVS cycle 1, target RH 35%",−0.0296%
same,Hysteresis,"[1]; DVS cycle 1, target RH 35%",−0.1181
same,Desorp Mass Change (%),"[1]; DVS cycle 1, target RH 45%",−0.1031%
same,Sorp Mass Change (%),"[1]; DVS cycle 1, target RH 45%",−0.0202%
same,Hysteresis,"[1]; DVS cycle 1, target RH 45%",−0.0829
same,Desorp Mass Change (%),"[1]; DVS cycle 1, target RH 55%",−0.0428%
same,Sorp Mass Change (%),"[1]; DVS cycle 1, target RH 55%",0.0018%
same,Hysteresis,"[1]; DVS cycle 1, target RH 55%",−0.0446
same,Desorp Mass Change (%),"[1]; DVS cycle 1, target RH 65%",0.0238%
same,Sorp Mass Change (%),"[1]; DVS cycle 1, target RH 65%",0.0282%
same,Hysteresis,"[1]; DVS cycle 1, target RH 65%",−0.0044
same,Desorp Mass Change (%),"[1]; DVS cycle 1, target RH 75%",0.0797%
same,Sorp Mass Change (%),"[1]; DVS cycle 1, target RH 75%",0.0741%
same,Hysteresis,"[1]; DVS cycle 1, target RH 75%",0.0057
same,Desorp Mass Change (%),"[1]; DVS cycle 1, target RH 85%",0.1545%
same,Sorp Mass Change (%),"[1]; DVS cycle 1, target RH 85%",0.1344%
same,Hysteresis,"[1]; DVS cycle 1, target RH 85%",0.0201
same,Desorp Mass Change (%),"[1]; DVS cycle 1, target RH 95%",0.2669%
same,Sorp Mass Change (%),"[1]; DVS cycle 1, target RH 95%",0.2669%
same,weight gain during sorption,"[1]; DVS, 5-95% RH",0.3%
same,weight loss during the desorption step,"[1]; DVS, 95-5% RH",0.5%
same,XRPD pattern of the post-DVS sample,[1]; after DVS experiment,consistent with Form F
same,hygroscopicity,[1]; judged from DVS sorption/desorption,non-hygroscopic
same,solubility,physchem,< 1000 µg/mL
same,solid form after slurry in water (XRPD),[2],converted completely to Form C
